Test results from patent US20260042764A1, “COMPOSITIONS AND METHODS FOR INHIBITION OF KRAS” (TheRas, Inc., priority 2022, published 2026).

How the values were obtained:
[1] = target: T1, Avi-KRAS G12V (1-169) GppNHp/RAF1 RBD-3xFLAG (52-151) (Homo sapiens, UniProt P01116, G12V); experiment: Raf1-KRAS G12V-GppNHP disruption HTRF assay (Biological Example 1); format: binding
T1 construct: Avi-KRAS G12V (1-169)
Procedure, shortened: (§1)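 HTRF PPI disruption; buffer 50 mM Tris pH 7.5, 100 mM NaCl, 5 mM MgCl2, 0.1% BSA, 0.01% Tween, 10% DMSO. Protein mix 1 h RT shaking, reagent mix 1 h RT shaking. Data as % activity vs DMSO (100%).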

SW620 cells (KRAS G12V) = experiment: Cell-based pERK HTRF assay in SW620 cell (Biological Example 4); conditions: pERK HTRF
Procedure, shortened: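 In SW620 cells grown in RPMI with 10% FBS, a 4 h compound treatment (0.25% DMSO, 9-point curve from 1 μM) preceded lysis. Phospho-ERK levels were then read by time-resolved FRET at 615 nm emission.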

[2] = target: T2, Avi-KRAS WT (1-169) GppNHp/RAF1 RBD-3xFLAG (52-151) (Homo sapiens, UniProt P01116); experiment: Raf1-KRAS WT-GppNHP disruption HTRF assay (Biological Example 1); format: binding
T2 construct: Avi-KRAS WT (1-169)
T2 sequence (P01116 1-169 isoform P01116-2): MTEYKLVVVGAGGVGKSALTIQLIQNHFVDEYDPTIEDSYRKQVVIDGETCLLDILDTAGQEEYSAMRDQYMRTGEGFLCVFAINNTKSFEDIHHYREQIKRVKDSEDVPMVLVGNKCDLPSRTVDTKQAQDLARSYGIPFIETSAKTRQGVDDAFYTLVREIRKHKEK
Procedure, shortened: as §1

[3] = target: T3, Avi-KRAS G12D (1-169) GppNHp/RAF1 RBD-3xFLAG (52-151) (Homo sapiens, UniProt P01116, G12D); experiment: Raf1-KRAS G12D-GppNHP disruption HTRF assay (Biological Example 1); format: binding
T3 construct: Avi-KRAS G12D (1-169)
T3 sequence (P01116 1-169 isoform P01116-2 G12D): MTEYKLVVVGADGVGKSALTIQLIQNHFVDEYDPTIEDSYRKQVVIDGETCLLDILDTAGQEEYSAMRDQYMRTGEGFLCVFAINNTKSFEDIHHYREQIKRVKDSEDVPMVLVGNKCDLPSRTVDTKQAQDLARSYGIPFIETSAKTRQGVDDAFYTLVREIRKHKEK
Procedure, shortened: as §1

[4] = target: T4, Avi-KRAS G12R (1-169) GppNHp/RAF1 RBD-3xFLAG (52-151) (Homo sapiens, UniProt P01116, G12R); experiment: Raf1-KRAS G12R-GppNHP disruption HTRF assay (Biological Example 1); format: binding
T4 construct: Avi-KRAS G12R (1-169)
T4 sequence (P01116 1-169 isoform P01116-2 G12R): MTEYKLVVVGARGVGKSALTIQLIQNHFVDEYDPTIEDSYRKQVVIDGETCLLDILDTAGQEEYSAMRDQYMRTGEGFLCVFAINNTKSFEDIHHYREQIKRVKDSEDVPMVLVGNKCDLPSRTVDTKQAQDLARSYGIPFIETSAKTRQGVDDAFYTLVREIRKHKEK
Procedure, shortened: as §1

GP2d cells (KRAS G12D) = experiment: Cell-based pERK HTRF assay in GP2d cell (Biological Example 2); conditions: GP2d (KRAS G12D) cells, pERK HTRF
Procedure, shortened: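 Treatment with test compounds lasted one hour in DMEM containing 10% FBS, with DMSO held at 0.25%. Dilution series: 9 points, half-log spacing, highest 1 μM or 100 nM. Lysates were incubated 4–24 h at room temperature with antibody mix, then HTRF was read at 320 nm excitation.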

[5] = Homo sapiens, SW-620, SW620 (KRAS G12V) cells
[6] = KRAS G12V, GppNHp-loaded, class symbols
[7] = Homo sapiens, SW-620, SW620 (KRAS G12V) cells, class symbols
[8] = KRAS WT, GppNHp-loaded, class symbols
[9] = KRAS G12D, GppNHp-loaded, class symbols
[10] = KRAS G12R, GppNHp-loaded, class symbols
[11] = KRAS G12V, GppNHp-loaded, Table 11
[12] = KRAS WT, GppNHp-loaded, Table 11
[13] = KRAS G12D, GppNHp-loaded, Table 11
[14] = KRAS G12R, GppNHp-loaded, Table 11

T1 sequence (P01116 1-169 isoform P01116-2 G12V): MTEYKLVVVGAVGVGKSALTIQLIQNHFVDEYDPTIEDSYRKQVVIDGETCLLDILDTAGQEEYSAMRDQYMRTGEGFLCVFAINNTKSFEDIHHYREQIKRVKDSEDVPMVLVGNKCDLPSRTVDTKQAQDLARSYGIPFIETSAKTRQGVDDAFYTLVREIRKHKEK

Row | Compound | IC50 ([1]; KRAS G12V-GppNHp/RAF1 RBD HTRF) [nM] | IC50 (SW620 cells (KRAS G12V); [5]) [nM] | IC50 ([2]; KRAS WT-GppNHp/RAF1 RBD HTRF) [nM] | IC50 ([3]; KRAS G12D-GppNHp/RAF1 RBD HTRF) [nM] | IC50 ([4]; KRAS G12R-GppNHp/RAF1 RBD HTRF) [nM] | IC50 (GP2d cells (KRAS G12D); GP2d) [nM] | IC50 [1, 6] [nM] | IC50 (SW620 cells (KRAS G12V); [7]) [nM] | IC50 [2, 8] [nM] | IC50 [3, 9] [nM] | IC50 [4, 10] [nM] | IC50 (GP2d cells (KRAS G12D); GP2d, class symbols) [nM] | also measured
1 | C[C@]1(CO)CCN1c1nc(OC[C@@]23CCCN2C[C@H](F)C3)nc2c(F)c(-c3ccc(F)c4sc(N)c(C#N)c34)c(C(F)(F)F)cc12 [Compound 429] | 1000 to 10000 | < 100 | 1000 to 10000 | 100 to 1000 | 1000 to 10000 | < 100 |  |  |  |  |  |  | 
2 | CCN(CC)C(=O)c1nn2c(c1C)CN(c1nc(OCC34CCCN3CC(F)C4)nc3c(F)c(-c4ccc(F)c5sc(N)c(C#N)c45)c(C(F)(F)F)cc13)CC2 (stereo not drawn) [Compound 740] |  |  |  |  |  |  | 100 to 1000 | < 100 | 100 to 1000 | 100 to 1000 | 100 to 1000 | < 100 | 
3 | CCN(c1nc(OC[C@]23C[C@@H](F)CN2CC2(CC2)C3)nc2c(F)c(-c3ccc(F)c4sc(N)c(C#N)c34)c(C(F)(F)F)cc12)[C@H]1CCN(C(=O)C(C)C)C1 [Compound 566] |  |  |  |  |  |  | 100 to 1000 | < 100 | 100 to 1000 | 100 to 1000 | 100 to 1000 | < 100 | 
4 | N#Cc1c(N)sc2c(F)ccc(-c3c(C(F)(F)F)cc4c(N5CCC[C@H](CO)C5)nc(OC[C@@]56CCCN5C[C@H](F)C6)nc4c3F)c12 [Compound 310] | 1000 to 10000 | 100 to 1000 | 100 to 1000 | 100 to 1000 | 100 to 1000 | < 100 |  |  |  |  |  |  | 
5 | CC(=O)N1CC[C@@](C)(N(C)c2nc(OC[C@@]34CCCN3C[C@H](F)C4)nc3c(F)c(-c4ccc(F)c5sc(N)c(C#N)c45)c(C(F)(F)F)cc23)[C@H]1C [Compound 342] | 1000 to 10000 | 100 to 1000 | 100 to 1000 | 1000 to 10000 | 1000 to 10000 | < 100 |  |  |  |  |  |  | 
6 | C[C@H]1C[C@H](N(c2nc(OC[C@@]34CCCN3C[C@H](F)C4)nc3c(F)c(-c4ccc(F)c5sc(N)c(C#N)c45)c(C(F)(F)F)cc23)C2CC2)CN1C(=O)C1CC1 [Compound 474] | 100 to 1000 | < 100 | 100 to 1000 | 100 to 1000 | 100 to 1000 | < 100 |  |  |  |  |  |  | 
7 | C[C@H]1COC[C@H](C)N1c1nc(OC[C@@]23CCCN2C[C@H](F)C3)nc2c(F)c(-c3ccc(F)c4sc(N)c(C#N)c34)c(C(F)(F)F)cc12 [Compound 200] |  | 100 to 1000 |  |  |  | < 100 |  |  |  |  |  |  | IC50 [1, 11]: 1000 to 10000 nM; IC50 [2, 12]: 1000 to 10000 nM; IC50 [3, 13]: 1000 to 10000 nM; IC50 [4, 14]: 1000 to 10000 nM
8 | CCN(c1nc(OC[C@@]23CCCN2C[C@H](F)C3)nc2c(F)c(-c3ccc(F)c4sc(N)c(C#N)c34)c(C(F)(F)F)cc12)[C@@H]1C[C@H](C)N(C(=O)N(C)C)C1 (atropisomer, axis not shown) [Compound 545] | 1000 to 10000 | < 100 | 100 to 1000 | 100 to 1000 | 1000 to 10000 | < 100 |  |  |  |  |  |  | 
9 | C[C@@H]1[C@H](N(C)c2nc(OC[C@@]34CCCN3C[C@H](F)C4)nc3c(F)c(-c4ccc(F)c5sc(N)c(C#N)c45)c(C(F)(F)F)cc23)CCN1C(=O)C1CC1 (atropisomer, axis not shown) [Compound 334] | > 10000 |  | > 10000 | > 10000 | > 10000 |  |  |  |  |  |  |  | IC50 (SW620 cells (KRAS G12V); SW620 (KRAS G12V) cells): 100 to 1000 nM; IC50 (GP2d cells (KRAS G12D)): 100 to 1000 nM
10 | CCN(c1nc(OC[C@@]23CCCN2C[C@H](F)C3)nc2c(F)c(-c3ccc(F)c4sc(N)c(C#N)c34)c(C(F)(F)F)cc12)[C@H]1CCN(C(=O)N2CC(OC)C2)[C@@H]1C (atropisomer, axis not shown) [Compound 761] |  |  |  |  |  |  | < 100 | < 100 | < 100 | < 100 | < 100 | < 100 | 
11 | N#Cc1c(N)sc2c(F)ccc(-c3c(C(F)(F)F)cc4c(N5CC6OCC5C6O)nc(OC[C@@]56CCCN5C[C@H](F)C6)nc4c3F)c12 (stereo partly drawn) [Compound 508] | 100 to 1000 | < 100 | 100 to 1000 | 100 to 1000 | 100 to 1000 | < 100 |  |  |  |  |  |  | 
12 | N#Cc1c(N)sc2c(F)ccc(-c3c(C(F)(F)F)cc4c(N(Cc5cccnc5N)C5CC5)nc(OC[C@@]56CCCN5C[C@H](F)C6)nc4c3F)c12 (atropisomer, axis not shown) [Compound 602] |  |  |  |  |  |  | 1000 to 10000 | < 100 | 1000 to 10000 | 1000 to 10000 | 1000 to 10000 | < 100 | 
13 | C[C@]1(O)CCN(c2nc(OC[C@@]34CCCN3C[C@H](F)C4)nc3c(F)c(-c4ccc(F)c5sc(N)c(C#N)c45)c(C(F)(F)F)cc23)C1 [Compound 242] |  | 100 to 1000 |  |  |  | < 100 |  |  |  |  |  |  | IC50 [1, 11]: 100 to 1000 nM; IC50 [2, 12]: 100 to 1000 nM; IC50 [3, 13]: 100 to 1000 nM; IC50 [4, 14]: 100 to 1000 nM
14 | CN(C)C(=O)CN(C)c1nc(OC[C@@]23CCCN2C[C@H](F)C3)nc2c(F)c(-c3ccc(F)c4sc(N)c(C#N)c34)c(C(F)(F)F)cc12 [Compound 208] |  | 100 to 1000 |  |  |  | < 100 |  |  |  |  |  |  | IC50 [1, 11]: 100 to 1000 nM; IC50 [2, 12]: 100 to 1000 nM; IC50 [3, 13]: 100 to 1000 nM; IC50 [4, 14]: 1000 to 10000 nM
15 | N#Cc1c(N)sc2c(F)ccc(-c3c(C(F)(F)F)cc4c(N5CCC5)nc(OC[C@@]56CCCN5C[C@H](F)C6)nc4c3F)c12 [Compound 212] |  | < 100 |  |  |  | < 100 |  |  |  |  |  |  | IC50 [1, 11]: 100 to 1000 nM; IC50 [2, 12]: 100 to 1000 nM; IC50 [3, 13]: 100 to 1000 nM; IC50 [4, 14]: 100 to 1000 nM
16 | CCN(c1nc(OC[C@@]23CCCN2C[C@H](F)C3)nc2c(F)c(-c3ccc(F)c4sc(N)c(C#N)c34)c(C(F)(F)F)cc12)[C@H]1CCN(C(=O)OC2CCN(C(C)=O)CC2)C1 (atropisomer, axis not shown) [Compound 720] |  |  |  |  |  |  | < 100 | < 100 | < 100 | < 100 | < 100 | < 100 | 
17 | CCN(c1nc(OC[C@@]23CCCN2C[C@H](F)C3)nc2c(F)c(-c3ccc(F)c4sc(N)c(C#N)c34)c(C(F)(F)F)cc12)[C@H]1CCN(C(=O)C2CC2(F)F)C1 (stereo partly drawn) [Compound 548] | < 100 | < 100 | < 100 | < 100 | < 100 | < 100 |  |  |  |  |  |  | 
18 | N#Cc1c(N)sc2c(F)ccc(-c3c(C(F)(F)F)cc4c(N5C[C@H]6C[C@@H](O)[C@@H]5C6)nc(OC[C@@]56CCCN5C[C@H](F)C6)nc4c3F)c12 [Compound 362] | 1000 to 10000 | 100 to 1000 | 100 to 1000 | 100 to 1000 | 100 to 1000 | < 100 |  |  |  |  |  |  | 
19 | CC1(O)COCCN(c2nc(OC[C@@]34CCCN3C[C@H](F)C4)nc3c(F)c(-c4ccc(F)c5sc(N)c(C#N)c45)c(C(F)(F)F)cc23)C1 (stereo partly drawn) [Compound 244] |  | < 100 |  |  |  | < 100 |  |  |  |  |  |  | IC50 [1, 11]: 100 to 1000 nM; IC50 [2, 12]: 100 to 1000 nM; IC50 [3, 13]: 100 to 1000 nM; IC50 [4, 14]: 100 to 1000 nM
20 | C[C@@H]1[C@H](N(C)c2nc(OC[C@@]34CCCN3C[C@H](F)C4)nc3c(F)c(-c4ccc(F)c5sc(N)c(C#N)c45)c(C(F)(F)F)cc23)CCN1C(=O)C1(F)CC1 [Compound 425] | 1000 to 10000 | < 100 | 100 to 1000 | 100 to 1000 | 100 to 1000 | < 100 |  |  |  |  |  |  | 
21 | CN(c1nc(OC[C@@]23CCCN2C[C@H](F)C3)nc2c(F)c(-c3ccc(F)c4sc(N)c(C#N)c34)c(C(F)(F)F)cc12)[C@H]1CC(=O)N(C2CC2)C1 (atropisomer, axis not shown) [Compound 616] |  |  |  |  |  |  | < 100 | < 100 | < 100 | < 100 | < 100 | < 100 | 
22 | N#Cc1c(N)sc2c(F)ccc(-c3c(C(F)(F)F)cc4c(N5CC6CC(C5)O6)nc(OC[C@]56C[C@@H](F)CN5CC5(CC5)C6)nc4c3F)c12 [Compound 594] |  |  |  |  |  |  | 1000 to 10000 | < 100 | 1000 to 10000 | 1000 to 10000 | 1000 to 10000 | < 100 | 
